Measurements reported in the NIST ThermoML archive (doi:10.1016/j.jct.2016.10.031).
Numbers after ± are expanded uncertainties.

Assay: molar heat capacity at constant pressure
Conditions: 101.33 kPa, Small (less than 1 g) adiabatic calorimetry

CC(C)(C)c1ccc(Oc2ccc([N+](=O)[O-])cc2)cc1 [1-(tert-butyl)-4-(4-nitrophenoxy)benzene]
Conditions	molar heat capacity at constant pressure [J/K/mol]
147.54 K, Crystal	187.32 ± 1
148.06 K, Glass	190.82 ± 1
148.34 K, Crystal	188.16 ± 1
148.86 K, Glass	191.65 ± 1
149.14 K, Crystal	188.9 ± 1
149.66 K, Glass	192.65 ± 1
149.94 K, Crystal	189.82 ± 1
150 K, Crystal	189.82 ± 0.91
150.46 K, Glass	193.56 ± 1
150.74 K, Crystal	190.57 ± 1
151.26 K, Glass	194.31 ± 1.1
151.54 K, Crystal	191.48 ± 1
152.06 K, Glass	195.14 ± 1.1
152.35 K, Crystal	192.31 ± 1
152.86 K, Glass	195.97 ± 1.1
153.15 K, Crystal	193.23 ± 1
153.66 K, Glass	196.89 ± 1.1
153.95 K, Crystal	194.14 ± 1.1
154.46 K, Glass	197.88 ± 1.1
154.75 K, Crystal	194.81 ± 1.1
155.26 K, Glass	198.63 ± 1.1
155.55 K, Crystal	195.89 ± 1.1
156.06 K, Glass	199.63 ± 1.1
156.35 K, Crystal	196.72 ± 1.1
156.86 K, Glass	200.38 ± 1.1
157.15 K, Crystal	197.47 ± 1.1
157.66 K, Glass	201.21 ± 1.1
157.95 K, Crystal	198.13 ± 1.1
158.46 K, Glass	201.96 ± 1.1
158.75 K, Crystal	199.21 ± 1.1
159.26 K, Glass	202.87 ± 1.1
159.55 K, Crystal	200.21 ± 1.1
160 K, Crystal	200.63 ± 1.1
160.06 K, Glass	203.79 ± 1.1
160.35 K, Crystal	201.13 ± 1.1
160.85 K, Glass	204.7 ± 1.1
161.15 K, Crystal	202.12 ± 1.1
161.95 K, Crystal	202.71 ± 1.1
162.45 K, Glass	206.7 ± 1.1
162.75 K, Crystal	203.62 ± 1.1
163.25 K, Glass	207.28 ± 1.1
163.55 K, Crystal	204.37 ± 1.1
164.04 K, Glass	208.36 ± 1.1
164.35 K, Crystal	205.62 ± 1.1
164.84 K, Glass	209.11 ± 1.1
165.15 K, Crystal	206.53 ± 1.1
165.64 K, Glass	209.94 ± 1.1
165.95 K, Crystal	207.36 ± 1.1
166.44 K, Glass	210.52 ± 1.1
166.75 K, Crystal	208.11 ± 1.1
167.23 K, Glass	211.35 ± 1.2
167.55 K, Crystal	209.11 ± 1.1
168.03 K, Glass	212.35 ± 1.2
168.34 K, Crystal	210.11 ± 1.1
168.81 K, Glass	213.35 ± 1.2
169.14 K, Crystal	210.44 ± 1.1
169.61 K, Glass	214.18 ± 1.2
169.94 K, Crystal	211.44 ± 1.2
170 K, Crystal	211.44 ± 1.1
170.41 K, Glass	214.93 ± 1.2
170.73 K, Crystal	212.93 ± 1.2
171.2 K, Glass	216.18 ± 1.2
171.53 K, Crystal	213.1 ± 1.2
172 K, Glass	217.01 ± 1.2
172.33 K, Crystal	214.01 ± 1.2
172.79 K, Glass	217.67 ± 1.2
173.12 K, Crystal	214.76 ± 1.2
173.59 K, Glass	218.42 ± 1.2
173.92 K, Crystal	215.68 ± 1.2
174.38 K, Glass	219.58 ± 1.2
174.72 K, Crystal	216.59 ± 1.2
175.18 K, Glass	220.25 ± 1.2
175.51 K, Crystal	218.01 ± 1.2
175.97 K, Glass	221.25 ± 1.2
176.31 K, Crystal	218.34 ± 1.2
176.77 K, Glass	221.83 ± 1.2
